Experimental data from US11414379B2, “SPAK kinase inhibitors as neuroprotective agents” (United States Government as represented by the Department …, priority 2018, dated 2022).

Assays:
[1] = system: mouse model of ischemic stroke; assay: Infarct volume and hemispheric swelling after transient MCAO; assay type: in vivo
Text: Under an operating microscope, the left common carotid artery was exposed through a midline incision. […] The ECA was dissected further distally and permanently ligated. The internal carotid artery (ICA) was isolated and carefully separated from the adjacent vagus nerve. A 12 mm length of silicon-coated nylon filament (size 6-0, native diameter 0.11 mm; diameter with coating 0.21+/−0.02 mm; coating length 5-6 mm; Doccol Corporation, Sharon, Mass.) was introduced into the ECA lumen through a puncture. The silk suture around the ECA stump was tightened around the intraluminal nylon suture to prevent bleeding. The nylon suture was then gently advanced from the ECA to the ICA lumen until mild resistance was felt (˜9 mm). For reperfusion, the suture was withdrawn 50 min after MCAO to restore blood flow. Body temperature was maintained for the duration of the experiment between 36.5° C.-37° C. with a small animal heating pad (Kent Scientific).
At 24 hours reperfusion, mice were anesthetized with 5% isoflurane and then decapitated. Coronal brain tissue slices (2 mm) were stained for 20 minutes at 37° C. with 1% 2,3,5-triphenyltetrazolium chloride monohydrate (TTC; Sigma, St Louis, Mo.) in PBS solution. […] The extent of hemispheric swelling was calculated using the following equation: swelling (% contralateral side)=[(volume of ipsilateral hemisphere−volume of contralateral hemisphere)/volume of contralateral hemisphere]×100 (Bhuiyan et al. (2017) Journal of cerebral blood flow and metabolism: official journal of the International Society of Cerebral Blood Flow and Metabolism 37: 2780-2794).
Referring to FIG. 11A, an experimental design of ischemic stroke study is shown. Vehicle or ZT-1a is administered at 3 hrs and 8 hrs post-MCAO.
Referring to FIG. 11B, representative images and quantification of infarct volume and hemispheric swelling in TTC-stained coronal sections of mouse brains 24 hrs post-MCAO are shown. Vehicle (DMSO, 2 ml/kg) or ZT-1a (2.5 or 5.0 mg/kg) were administered with an initial half dose at 3 hrs and the second half dose at 8 hr reperfusion via intra-peritoneal injection (i.p.). Data are mean±SD, n=6-12 per group (male). * p<0.05.

[2] = system: KCC2 pThr1007 and NKCC1 pThr203/207/212; assay: In vivo pharmacodynamic analysis, brain; parameters: species or system mouse; conditions: naïve brains; 60 minutes after administration
Experimental: Male C57BL/6j wild-type mice (6 weeks old) were purchased from Charles River Laboratories Edinburgh UK. ZT-1a was dissolved in DMSO (Sigma) solution and administered by subcutaneous injection into wild type male C57BL/6 mice at doses of 0, 3, 10, 30, 50 and 100 mg/kg. 50 mg/kg Closantel (1) was injected as a comparative control. Age-matched SPAK^502A/502A knock-in mice were also used as comparative controls (Zhang et al. (2015) Human molecular genetics 24: 4545-455). Control mice were treated with an equal volume of DMSO solution. One hour after administration, mice were sacrificed by cervical dislocation, and kidney and brain tissues were rapidly dissected and snap-frozen in liquid nitrogen. The SPAK^502A/502A knock-in mouse was established and maintained under specific pathogen-free conditions at the University of Dundee (UK) as described in our recent study.
Referring to FIG. 9A and FIG. 9B, in vivo pharmacodynamic analysis of ZT-1a was performed. ZT-1a and Closantel were administered via subcutaneous injection at the indicated doses. Brain (FIG. 9A) and kidney (FIG. 9B) tissues were collected, and endogenous proteins were subjected to immunoblot probed with SPAK, NKCC1 and NCC phospho-specific antibodies.

human SPAK 452-547(end) = biological target: T1, human SPAK 452-547(end) (Homo sapiens, UniProt Q9UEW8); assay: Fluorescence polarization, SPAK-WNK peptide interaction; assay type: binding; conditions: for IC50: Lumio-Green-labelled WNK peptide 10 nM, read-out: IC50, concentration-dependent decrease in fluorescence polarization; for disruption of binding between WNK4 and the SPAK CCT domain: fluorescence polarization
T1 construct: Purified human SPAK 452-547(end); made in house; host or cells: E. coli
Experimental: Fluorescence polarization measurements were performed at 25° C. with purified SPAK proteins in 50 mM Tris/HCl, pH 7.5, 150 mM NaCl and 2 mM DTT. The concentration of SPAK proteins was determined by measuring their absorbance at 280 nm and calculated using the molar absorption coefficient determined by the ProtParam Online tool (Gasteiger et al., 2001). All peptides ([…] [EP4543] and […] [EP4544]; SEQ ID NO:2 and SEQ ID NO:3, respectively) contained an N-terminal linker required for conjugating to the Lumio Green fluorophore ([…]; SEQ ID NO:4) and were initially re-suspended in 50 mM ammonium bicarbonate, pH 8. Peptide labelling was achieved by incubating […] of each peptide in a 0.5 ml reaction mixture of 20 μM Lumio Green in 25 mM Tris/HCl, pH 7.5, 200 mM NaCl and 5 mM 2-mercaptoethanol. Reactions were left to proceed in the dark for 2 h. The peptides were dialysed for 4 h into 25 mM Tris/HCl, pH 7.5, 200 mM NaCl and 5 mM 2-mercaptoethanol using a Micro DispoDIALYZER with a 100 Da molecular-mass cut-off (Harvard Apparatus), and then for another 12 h with changed buffer. For fluorescence polarization, mixtures were set up containing the indicated concentration of protein, 10 nM Lumio-Green-labelled peptide in a final volume of 30 μl. All individual bindings were performed in duplicate with at least 12 data points per curve. Fluorescence polarization was measured using a BMG PheraStar plate reader, with an excitation wavelength of 485 nm and an emission wavelength of 538 nm, and measurements were corrected to the fluorescent probe alone. Data analysis and graphing were then performed in GraphPad Prism7; a one-site specific binding model was assumed (Y=Bmax*X/[Kd+X]) and the fitted dissociation constant computed. All experimental bindings were repeated at least twice.
Referring to FIG. 5A, analysis of SPAK-WNK interaction by fluorescence polarization is shown. Purified human SPAK 452-547(end) and human SPAK 452-547 with L491A (equivalent to L502 in mouse) were diluted appropriately and mixed at a 1:1 volume ratio with 20 nM Lumino-Green-labelled WNK peptide (RFQV or AFQV) to the concentration stated in the Figure (with the final peptide concentration consistent at 10 nM), and fluorescent polarization measurements were made. Binding curves, assuming one-site-specific binding, were then generated with Prism6 using milli-polarization (mP) units.

| Compound | effect on infarct volume and hemispheric swelling ([1]; 0.1 mg/kg dose) | effect on infarct volume and hemispheric swelling ([1]; 1.0 or 2.5 mg/kg at 3 hr and at 8 hr reperfusion) | effect on KCC2 (pThr1007) or NKCC1 (pThr203/207/212) phosphorylation [2] | IC50 (human SPAK 452-547(end)) | disruption of binding between WNK4 and the SPAK CCT domain (human SPAK 452-547(end)) | infarct volume ([1]; 5 mg/kg i.p., post-stroke from 3 hr reperfusion, 24 hrs post-MCAO, mean±SD) | decrease of infarct volume ([1]; 5 mg/kg i.p., post-stroke from 3 hr reperfusion, 24 hrs post-MCAO, vs vehicle) | reduction of cerebral hemispheric swelling ([1]; 2.5 or 5 mg/kg, 24 hrs post-MCAO, vs vehicle) |
| --- | --- | --- | --- | --- | --- | --- | --- | --- |
| Cc1cc(C(C#N)c2ccc(Cl)cc2)c(Cl)cc1NC(=O)c1cc(I)cc(I)c1O (centres unmarked) [Closantel] | ineffective | dose-dependently reduced | neither drug reduced | > 1000 µM | did not disrupt | – | – | – |
| Cc1cc(C(C#N)c2ccc(Cl)cc2)c(Cl)cc1NC(=O)c1cc(Cl)ccc1O (centres unmarked) [ZT-1a, 5-chloro-N-(5-chloro-4-((4-chlorophenyl)(cyano)methyl)-2-methylphenyl)-2-hydroxy-benzamide] | – | – | neither drug reduced | 326 µM | did not disrupt | 50.4±27.0 mm^3 | ~35% | 36 to 50% |
